Results reported in patent publication US11214803B2, “Modulators of YAP1 expression” (Ionis Pharmaceuticals, Inc., priority 2019, dated 2022).
Strand notation (5' to 3'): a small letter for the sugar, then the base; units joined by * are phosphorothioate-linked, units joined directly phosphodiester-linked; [ ] holds rarer units or linkages, { } end groups; capitals alone tell only the bases. k = constrained ethyl (cEt); [5mC] = 5-methylcytosine; d = 2'-deoxy (DNA)

Test system: Yap1 mRNA
Assay: Antisense inhibition of human Yap1 in A-431 cells by cEt gapmers, single dose (Example 2, RTS4814)
Assay type: cell-based
Procedure, shortened: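 Each 16-nucleoside gapmer (ten-deoxy gap, three-cEt wings) is tested once at 2,000 nM in A-431 cells by free uptake. Yap1 mRNA after about 48 hours is measured by quantitative RT-PCR and expressed relative to untreated control.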

[1] = Yap1 mRNA as percent of untreated control, A-431 cells, 3-10-3 cEt gapmers targeting SEQ ID NO.: 1, and 2, Table 31
[2] = Table 22, Yap1 mRNA as percent of untreated control, 3-10-3 cEt gapmers, single dose
[3] = Table 33, Yap1 mRNA, percent of untreated control, 3-10-3 cEt gapmers targeting SEQ ID NO.: 1, and 2
[4] = A-431 cells, 5,000 cells per well, free uptake, 2,000 nM modified oligonucleotide, approx. 48 hours, RTS4814, normalized to RIBOGREEN, Table 4, asterisk (*) = targets amplicon region of primer probe set
[5] = Table 24, Yap1 mRNA as percent of untreated control, 3-10-3 cEt gapmers targeting SEQ ID NO.: 1, and 2
[6] = Table 19, A-431 cells, 5,000 cells per well, free uptake, 2,000 nM modified oligonucleotide, approx. 48 hours, RTS4814, normalized to RIBOGREEN, Yap1 mRNA as percent of untreated control
[7] = Table 20, Yap1 mRNA, percent of untreated control, 3-10-3 cEt gapmers targeting SEQ ID NO.: 1 and 2
[8] = Table 5, A-431 cells, 5,000 cells per well, free uptake, 2,000 nM modified oligonucleotide, approx. 48 hours, RTS4814, normalized to RIBOGREEN, Yap1 mRNA relative to untreated control cells
[9] = Table 21, Yap1 mRNA, percent of untreated control, 3-10-3 cEt gapmers targeting SEQ ID NO.: 1 and 2
[10] = Table 23, Yap1 mRNA as percent of untreated control, 3-10-3 cEt gapmers, single dose
[11] = Table 32, Yap1 mRNA, percent of untreated control, 3-10-3 cEt gapmers targeting SEQ ID NO.: 1, and 2
[12] = Table 25, Yap1 mRNA as percent of untreated control, 3-10-3 cEt gapmers targeting SEQ ID NO.: 1, and 2
[13] = Yap1 mRNA as percent of untreated control, A-431 cells, 3-10-3 cEt gapmers targeting SEQ ID NO.: 1, and 2, Table 30

## 1076433 (kA*kT*kT*dA*dA*d[5mC]*dT*dT*dT*d[5mC]*dG*d[5mC]*dT*kA*kA*kA; antisense) [compound 1076433]
[1]
  YAP1 (% UTC): 69 % UTC

## 1074120 (antisense kG*k[5mC]*kG*dA*dG*dG*d[5mC]*dA*d[5mC]*dT*d[5mC]*dG*dG*kA*k[5mC]*k[5mC]) [Compound 1074120]
[2]
  YAP1 (% UTC): 50 % UTC

## 1076339 (antisense k[5mC]*kA*kG*d[5mC]*dA*dA*dT*dA*d[5mC]*dT*dG*dT*dG*kG*kG*k[5mC]) [compound 1076339]
[3]
  YAP1 (% UTC): 13 % UTC

## 1075635 (antisense kA*kA*kT*dA*dA*dA*d[5mC]*dA*d[5mC]*d[5mC]*dT*d[5mC]*dG*k[5mC]*k[5mC]*kA) [compound 1075635]
[3]
  YAP1 (% UTC): 97 % UTC

## 716418 (k[5mC]*k[5mC]*kT*dG*dA*dG*dG*dG*d[5mC]*dT*d[5mC]*dT*dA*kT*kA*kA; antisense) [Compound 716418]
[4]
  YAP1 (% UTC): 75 % UTC

## 1075336 (kG*k[5mC]*kT*dT*dA*dA*dT*dA*dA*dT*d[5mC]*dT*dA*k[5mC]*k[5mC]*kA; antisense) [Compound 1075336]
[2]
  YAP1 (% UTC): 32 % UTC

## 1075592 (k[5mC]*kG*kT*dA*dA*dT*dA*dA*dT*d[5mC]*dA*d[5mC]*d[5mC]*kT*kT*kA; antisense) [Compound 1075592]
[2]
  YAP1 (% UTC): 55 % UTC

## 1074698 (antisense kT*kA*kT*d[5mC]*dA*dA*dG*dG*dT*d[5mC]*d[5mC]*d[5mC]*d[5mC]*k[5mC]*kT*kA) [Compound 1074698]
[5]
  YAP1 (% UTC): 78 % UTC

## 1076424 (kA*k[5mC]*kT*dT*dA*dA*d[5mC]*d[5mC]*dT*dG*dA*d[5mC]*dA*kG*k[5mC]*kT; antisense) [Compound 1076424]
[2]
  YAP1 (% UTC): 76 % UTC

## 1075301 (k[5mC]*kA*kG*d[5mC]*dA*dA*d[5mC]*dA*d[5mC]*d[5mC]*dT*dA*dA*kG*kG*kA; antisense) [Compound 1075301]
[6]
  YAP1 (% UTC): 92 % UTC

## 1076550 (antisense kT*kA*k[5mC]*d[5mC]*dA*dA*d[5mC]*d[5mC]*dT*dG*dT*dA*dT*k[5mC]*k[5mC]*kA) [Compound 1076550]
[7]
  YAP1 (% UTC): 61 % UTC

## 716485 (kA*k[5mC]*kT*dA*d[5mC]*d[5mC]*dA*dA*dT*dA*dT*dA*d[5mC]*kA*kT*kT; antisense) [Compound 716485]
[8]
  YAP1 (% UTC): 84 % UTC

## 1075527 (kA*kT*kT*dT*dA*dA*dT*dT*dA*dA*dG*dG*dG*k[5mC]*k[5mC]*k[5mC]; antisense) [Compound 1075527]
[9]
  YAP1 (% UTC): 82 % UTC

## 1075145 (antisense kT*k[5mC]*k[5mC]*d[5mC]*dA*dA*dA*dA*dG*dG*dA*dG*dT*kA*kG*k[5mC]) [Compound 1075145]
[10]
  YAP1 (% UTC): 58 % UTC

## 1074354 (antisense kG*kG*kA*d[5mC]*dA*d[5mC]*dT*dG*dT*dA*dG*d[5mC]*dT*kG*k[5mC]*kT) [compound 1074354]
[11]
  YAP1 (% UTC): 24 % UTC

## 1074853 (antisense k[5mC]*kA*kA*dT*dT*dG*dT*dT*dA*dT*dG*dA*dT*kA*kG*kG) [Compound 1074853]
[6]
  YAP1 (% UTC): 15 % UTC

## 1075851 (kG*k[5mC]*k[5mC]*dG*dA*dA*dT*dA*dT*dG*dG*dG*dA*kA*kA*kA; antisense) [Compound 1075851]
[12]
  YAP1 (% UTC): 70 % UTC

## 716479 (kG*kA*kA*d[5mC]*dA*dA*dT*d[5mC]*dT*dT*dG*dA*dA*kG*kG*k[5mC]; antisense) [Compound 716479]
[8]
  YAP1 (% UTC): 32 % UTC

## 716420 (k[5mC]*kA*kA*d[5mC]*dT*dG*dG*d[5mC]*dT*dT*dA*dT*dG*kG*kA*kA; antisense) [Compound 716420]
Table 6, A-431 cells, 5,000 cells per well, free uptake, 2,000 nM modified oligonucleotide, approx. 48 hours, RTS4814, normalized to RIBOGREEN, Yap1 mRNA relative to untreated control cells
  YAP1 (% UTC): 50 % UTC

## 1075722 (kG*kT*kT*dA*dA*dA*dT*dA*d[5mC]*d[5mC]*dT*dT*d[5mC]*kT*kA*kG; antisense) [Compound 1075722]
[5]
  YAP1 (% UTC): 88 % UTC

## 1076177 (k[5mC]*kT*kT*dT*dA*dT*dT*dT*d[5mC]*d[5mC]*d[5mC]*dA*d[5mC]*k[5mC]*k[5mC]*kG; antisense) [compound 1076177]
[1]
  YAP1 (% UTC): 37 % UTC

## 1075112 (antisense kA*kT*kA*dT*dA*dG*dG*dA*dA*dT*dA*dT*dG*kG*kG*kT) [Compound 1075112]
[2]
  YAP1 (% UTC): 6 % UTC

## 1075377 (antisense k[5mC]*kT*kA*dG*dA*dA*dA*dG*dG*dT*dT*dG*dG*k[5mC]*k[5mC]*k[5mC]) [compound 1075377]
[1]
  YAP1 (% UTC): 108 % UTC

## 1075403 (antisense k[5mC]*kT*kT*dA*dA*dT*d[5mC]*dA*dG*dG*dT*dA*d[5mC]*kT*kA*kT) [Compound 1075403]
[12]
  YAP1 (% UTC): 18 % UTC

## 716455 (kG*kT*kT*dA*dT*dG*dT*dT*dT*dG*dG*dG*dT*kG*kT*kG; antisense) [Compound 716455]
[8]
  YAP1 (% UTC): 17 % UTC

## 1076560 (kT*k[5mC]*k[5mC]*dA*dA*dA*dT*dA*dT*dG*dG*d[5mC]*dA*kT*kA*k[5mC]; antisense) [compound 1076560]
[13]
  YAP1 (% UTC): 10 % UTC

## 1075173 (antisense k[5mC]*kT*kT*dT*dA*dG*dG*dG*d[5mC]*dA*dA*d[5mC]*dT*kG*kT*kA) [Compound 1075173]
[6]
  YAP1 (% UTC): 22 % UTC

## 1074224 (antisense k[5mC]*kA*kG*dA*dG*dA*d[5mC]*dT*dA*d[5mC]*dT*d[5mC]*d[5mC]*kA*kG*kT) [compound 1074224]
[13]
  YAP1 (% UTC): 16 % UTC

## 1074985 (antisense kA*kA*kT*d[5mC]*dA*d[5mC]*d[5mC]*dT*dT*dT*dT*dA*dT*kT*kG*k[5mC]) [Compound 1074985]
[10]
  YAP1 (% UTC): 49 % UTC

## 1076199 (kT*kA*kT*d[5mC]*dA*dA*dA*dA*dG*dT*d[5mC]*d[5mC]*dA*kT*k[5mC]*k[5mC]; antisense) [Compound 1076199]
[9]
  YAP1 (% UTC): 37 % UTC

## 1075816 (kT*kA*kG*dT*dA*dT*dA*dA*dA*dG*d[5mC]*dA*dG*kG*kG*k[5mC]; antisense) [Compound 1075816]
[2]
  YAP1 (% UTC): 7 % UTC

## 716565 (kG*kG*kG*d[5mC]*dT*dA*dA*d[5mC]*dT*dA*d[5mC]*dA*dT*kT*kG*k[5mC]; antisense) [Compound 716565]
[4]
  YAP1 (% UTC): 129 % UTC

## 1076434 (k[5mC]*kT*kT*dT*dA*dG*dG*dT*dT*dT*dA*dT*dG*k[5mC]*k[5mC]*kT; antisense) [compound 1076434]
[11]
  YAP1 (% UTC): 25 % UTC

## 1074123 (antisense kG*k[5mC]*kT*dG*d[5mC]*dG*dA*dG*dG*d[5mC]*dA*d[5mC]*dT*k[5mC]*kG*kG) [Compound 1074123]
[12]
  YAP1 (% UTC): 72 % UTC

## 1076113 (kT*kG*kA*d[5mC]*dA*dA*dT*dA*dG*d[5mC]*d[5mC]*dA*dA*kT*kG*k[5mC]; antisense) [compound 1076113]
[1]
  YAP1 (% UTC): 16 % UTC

## 1075432 (antisense k[5mC]*kT*kA*dA*d[5mC]*dT*dA*dA*dA*d[5mC]*dT*dG*dA*kT*kT*k[5mC]) [Compound 1075432]
[2]
  YAP1 (% UTC): 121 % UTC

## 716353 (kG*k[5mC]*kA*dT*d[5mC]*d[5mC]*d[5mC]*d[5mC]*d[5mC]*dG*d[5mC]*d[5mC]*d[5mC]*k[5mC]*kG*kG; antisense) [Compound 716353]
[8]
  YAP1 (% UTC): 98 % UTC

## 1075910 (kG*kA*kA*dA*dT*dA*dA*dG*dG*dA*dG*dT*dA*kG*kG*kT; antisense) [Compound 1075910]
[7]
  YAP1 (% UTC): 93 % UTC

## 716559 (k[5mC]*k[5mC]*kT*dA*dA*d[5mC]*dA*dT*dA*dT*dG*dA*dG*k[5mC]*kA*kT; antisense) [Compound 716559]
[4]
  YAP1 (% UTC): 62 % UTC

## 1074194 (antisense k[5mC]*k[5mC]*kG*dG*dG*dT*d[5mC]*d[5mC]*dG*dG*dA*d[5mC]*dG*kG*k[5mC]*kG) [compound 1074194]
[11]
  YAP1 (% UTC): 57 % UTC

## 1075815 (kG*kT*kA*dT*dA*dA*dA*dG*d[5mC]*dA*dG*dG*dG*k[5mC]*kA*kT; antisense) [Compound 1075815]
[9]
  YAP1 (% UTC): 36 % UTC

## 1076171 (kA*kT*kT*dA*dG*dT*dA*dA*dA*dG*dA*dG*dT*kA*k[5mC]*kT; antisense) [Compound 1076171]
[12]
  YAP1 (% UTC): 30 % UTC

## 1074962 (antisense kA*kG*kG*d[5mC]*dA*dA*dG*d[5mC]*dA*dG*d[5mC]*dT*dA*kA*kA*kT) [compound 1074962]
[11]
  YAP1 (% UTC): 78 % UTC
